Earlier results in US20140274796A1, “Methods, Systems, and Compositions for In Vitro Concentric Cell Culture Analog Systems” (University of Central Florida Research Foundation, Inc., priority 2013, published 2014).

How the values were obtained:
[1] = in vivo
[2] = literature statement [Scollon 2009]
[3] = system: sodium-channels of squid axon-membranes; conditions: literature statement [Lund 1982]

Structure (SMILES)	toxicity relative to trans isomers [1]	metabolic rate relative to trans isoform [2]	activity of stereospecific isomer [3]
CC1(C)C(C=C(Cl)Cl)C1C(=O)OCc1cccc(Oc2ccccc2)c1 (single isomer, unassigned) [cis isomers, permethrin]	about ten times more toxic than the trans isomers	much slower	
CC1(C)C(C=C(Cl)Cl)C1C(=O)OCc1cccc(Oc2ccccc2)c1 (stereo not drawn) [1R-cis-, permethrin]			active
CC1(C)C(C=C(Cl)Cl)C1C(=O)OCc1cccc(Oc2ccccc2)c1 (stereo not drawn) [1R-trans-, permethrin]			active
CC1(C)C(C=C(Cl)Cl)C1C(=O)OCc1cccc(Oc2ccccc2)c1 (stereo not drawn) [1S-cis-, permethrin]			not
CC1(C)C(C=C(Cl)Cl)C1C(=O)OCc1cccc(Oc2ccccc2)c1 (stereo not drawn) [1S-trans-, permethrin]			not
